From US20100015243A1, “METHOD FOR PREPARING MATERIALS HAVING ANTITHROMBOTIC ACTIVITY FROM MUSKRAT MUSK AND MATERIALS OBTAINED FROM THE METHOD” (priority 2006, published 2010) come the findings set out here.

This assay relates to Thrombin. Kind of assay: Thrombin time measurement (antithrombotic activity) with Thrombitimer2. The class given is biochemical. The note with it: per 0.1 mg of asprin; time until fibrinogen clots are formed; FIG. 8. The protocol: As for the 4th step, a thrombin time of the divided groups in the 3rd step are measured and the group showing the highest antithrombotic activity is selected. The thrombin time is, but not limited to, a time until fibrinogen clots are formed. For example, with Thrombitimer2 (Behnk Elektronik, Germany), after adding Thrombin (T46481KU-59NIH unit/mg) and fibrinogen, the time until fibrinogen clots are formed is counted.
The activity was measured by counting a thrombin time according to the method described in Choi et al., Kor. J. Pharmacogn. 26, 154-158, 1995 and Son et al., Kor. J. Pharmacogn. 34 (1):52-61, 2004.
Specifically, the thrombin time was measured with Thrombitimer2 (Behnk Elektronik, Germany) wherein a fixed concentration of specimen was dissolved in 10 ? of dimethylsulfoxide (DMSO), the solution was added to a tube with 50 ? of borate buffer (pH7.8), Thrombin 1 unit/50 ? (T46481KU-59NIH unit/mg solid, Sigma Co., USA) was mixed with the solution, the mixture was warmed at 37° C. for 5 minutes, 200 ? of fibrinogen (0.33%, Sigma Co., USA) was added to it, and the time until coaggulation occurs was counted. […]
Antithrombotic activity was measured by counting a thrombin time and the result is an average of at least 3 experiments.

`CC(=O)Oc1ccccc1C(=O)O` [asprin]: the thrombin time is 15 s.
